Results taken from ChEMBL document CHEMBL1201862, “PubChem BioAssay data set” (2004).
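Exposure lasted 48 hours, with cells grown in 96-well plates and compounds tested at five concentrations. GI50: concentration for 50% inhibition of growth.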 Activity calls are given as the source filed them. Rule as the data show it: active = GI50 up to about 1.1 µM and inactive = higher.

Experiments:
Test in all cases: NCI tumour cell line growth inhibition, 48 h
NCI-H23 = system: NCI-H23
A549 = system: A549
SN12C = system: SN12C
OVCAR-3 = system: OVCAR-3
MOLT-4 = system: MOLT-4
NCI-H226 = system: NCI-H226
UACC-257 = system: UACC-257
OVCAR-8 = system: OVCAR-8
SNB-75 = system: SNB-75
786-0 = system: 786-0
PC-3 = system: PC-3
EKVX = system: EKVX
KM12 = system: KM12
SF-539 = system: SF-539
NCI-H460 = system: NCI-H460
M14 = system: M14
SNB-19 = system: SNB-19
UACC-62 = system: UACC-62
SK-OV-3 = system: SK-OV-3

| Compound | GI50 (NCI-H23) | GI50 (A549) | GI50 (SN12C) | GI50 (OVCAR-3) | GI50 (MOLT-4) | GI50 (NCI-H226) | GI50 (UACC-257) | GI50 (OVCAR-8) | GI50 (SNB-75) | GI50 (786-0) | GI50 (PC-3) | GI50 (EKVX) | GI50 (KM12) | GI50 (SF-539) | GI50 (NCI-H460) | GI50 (M14) | GI50 (SNB-19) | GI50 (UACC-62) | GI50 (SK-OV-3) |
| --- | --- | --- | --- | --- | --- | --- | --- | --- | --- | --- | --- | --- | --- | --- | --- | --- | --- | --- | --- |
| CNC(=O)OCc1cnc([N+](=O)[O-])n1C | > 100 µM (inactive) | > 100 µM (inactive) | > 100 µM (inactive) | > 100 µM (inactive) | > 100 µM (inactive) | > 100 µM (inactive) | > 100 µM (inactive) | > 100 µM (inactive) | > 100 µM (inactive) | > 100 µM (inactive) | > 100 µM (inactive) | > 100 µM (inactive) | > 100 µM (inactive) | > 100 µM (inactive) | > 100 µM (inactive) | – | – | – | – |
| Nc1c(-c2nc3ccccc3[nH]2)sc(=S)n1-c1ccccc1 | > 100 µM (inactive) | > 100 µM (inactive) | > 100 µM (inactive) | 51.2 µM (inactive) | 16.3 µM (inactive) | > 100 µM (inactive) | > 100 µM (inactive) | > 100 µM (inactive) | 44.8 µM (inactive) | 61.2 µM (inactive) | – | 55.2 µM (inactive) | > 100 µM (inactive) | > 100 µM (inactive) | > 100 µM (inactive) | > 100 µM (inactive) | > 100 µM (inactive) | 13.5 µM (inactive) | > 100 µM (inactive) |
| COc1ccc(NC(=O)/C(=C/c2ccccc2)C(C)=O)cc1 | > 10 µM (inactive) | 22.2 µM (inactive) | 14.4 µM (inactive) | 16.3 µM (inactive) | 11.4 µM (inactive) | 19.2 µM (inactive) | 13.3 µM (inactive) | 18.1 µM (inactive) | 7.11 µM (inactive) | 14.8 µM (inactive) | – | 22.5 µM (inactive) | 12.4 µM (inactive) | 15.3 µM (inactive) | 21.6 µM (inactive) | 12.9 µM (inactive) | 16.2 µM (inactive) | 7.89 µM (inactive) | 40.2 µM (inactive) |
| O=c1cc(NCC2CCCCC2)[nH]c(=O)[nH]1 | > 100 µM (inactive) | > 100 µM (inactive) | > 100 µM (inactive) | > 100 µM (inactive) | – | > 100 µM (inactive) | > 100 µM (inactive) | > 100 µM (inactive) | > 100 µM (inactive) | > 100 µM (inactive) | > 100 µM (inactive) | > 100 µM (inactive) | > 100 µM (inactive) | > 100 µM (inactive) | > 100 µM (inactive) | > 100 µM (inactive) | > 100 µM (inactive) | – | – |
| C=C[Si](C)(C)COC(=O)/C(C#N)=C/C=C/c1ccccc1 | > 100 µM (inactive) | > 100 µM (inactive) | > 100 µM (inactive) | 34.8 µM (inactive) | 28.7 µM (inactive) | > 100 µM (inactive) | > 100 µM (inactive) | > 100 µM (inactive) | 34.6 µM (inactive) | > 100 µM (inactive) | – | > 100 µM (inactive) | > 100 µM (inactive) | > 100 µM (inactive) | > 100 µM (inactive) | > 100 µM (inactive) | > 100 µM (inactive) | 88.7 µM (inactive) | > 100 µM (inactive) |
| CC12CC(=O)NN=C1c1ccccc1C2 (stereo not given) | > 100 µM (inactive) | > 100 µM (inactive) | > 100 µM (inactive) | > 100 µM (inactive) | > 100 µM (inactive) | > 100 µM (inactive) | > 100 µM (inactive) | > 100 µM (inactive) | > 100 µM (inactive) | > 100 µM (inactive) | – | 98.2 µM (inactive) | > 100 µM (inactive) | > 100 µM (inactive) | > 100 µM (inactive) | > 100 µM (inactive) | > 100 µM (inactive) | > 100 µM (inactive) | > 100 µM (inactive) |
| COC(=O)c1c(O)ccc2c1c1c(n2CCc2ccccc2)C(=O)c2ccccc2C1 | 20.7 µM (inactive) | 23.5 µM (inactive) | 14.7 µM (inactive) | 16.1 µM (inactive) | 38.3 µM (inactive) | 16.3 µM (inactive) | 18.5 µM (inactive) | 36.3 µM (inactive) | 26.4 µM (inactive) | 17 µM (inactive) | 16.8 µM (inactive) | – | 31.8 µM (inactive) | 24.8 µM (inactive) | 16.7 µM (inactive) | 22.3 µM (inactive) | 24.8 µM (inactive) | 14.4 µM (inactive) | 22.5 µM (inactive) |
| O=[N+]([O-])c1ccc(C2=Nn3c(nnc3-c3ccccc3)SC2)o1 | 20.6 µM (inactive) | 35.2 µM (inactive) | 15.7 µM (inactive) | 17.3 µM (inactive) | 24.3 µM (inactive) | 58.6 µM (inactive) | 20 µM (inactive) | 19.3 µM (inactive) | 20.4 µM (inactive) | 20.8 µM (inactive) | – | 46.8 µM (inactive) | 18 µM (inactive) | 18.8 µM (inactive) | 18.6 µM (inactive) | 17.6 µM (inactive) | 85.5 µM (inactive) | 19.5 µM (inactive) | > 100 µM (inactive) |
| N=C(N)NS(=O)(=O)c1ccc(NC(=O)c2cccc3cc4ccccc4nc23)cc1 | > 100 µM (inactive) | > 100 µM (inactive) | > 100 µM (inactive) | > 100 µM (inactive) | 5.55 µM (inactive) | 9.75 µM (inactive) | > 100 µM (inactive) | 14.5 µM (inactive) | 95.1 µM (inactive) | 67.9 µM (inactive) | – | > 100 µM (inactive) | 30.8 µM (inactive) | 25.5 µM (inactive) | > 100 µM (inactive) | > 100 µM (inactive) | 9.79 µM (inactive) | > 100 µM (inactive) | > 100 µM (inactive) |
| CCOC(=O)Cn1c(=O)[nH]c(=O)c2c1ncn2Cc1ccccc1 | > 100 µM (inactive) | > 100 µM (inactive) | > 100 µM (inactive) | > 100 µM (inactive) | > 100 µM (inactive) | > 100 µM (inactive) | > 100 µM (inactive) | > 100 µM (inactive) | > 100 µM (inactive) | > 100 µM (inactive) | – | > 100 µM (inactive) | > 100 µM (inactive) | > 100 µM (inactive) | > 100 µM (inactive) | > 100 µM (inactive) | > 100 µM (inactive) | > 100 µM (inactive) | > 100 µM (inactive) |
| CNC(=O)OCc1nc([S+](C)[O-])n(C)c1COC(=O)NC (stereo not given) | > 100 µM (inactive) | > 46.5 µM (inactive) | > 100 µM (inactive) | > 100 µM (inactive) | > 100 µM (inactive) | > 100 µM (inactive) | > 100 µM (inactive) | > 100 µM (inactive) | > 100 µM (inactive) | > 100 µM (inactive) | – | > 100 µM (inactive) | > 100 µM (inactive) | > 100 µM (inactive) | > 100 µM (inactive) | > 29.1 µM (inactive) | > 100 µM (inactive) | > 49.1 µM (inactive) | > 44.1 µM (inactive) |
| C[N+]1(C)C[C@@H](O)C[C@@H]1C(=O)[O-] [BETONICINE] | > 100 µM (inactive) | > 100 µM (inactive) | > 100 µM (inactive) | > 100 µM (inactive) | > 100 µM (inactive) | > 100 µM (inactive) | > 100 µM (inactive) | > 100 µM (inactive) | > 100 µM (inactive) | > 100 µM (inactive) | – | > 100 µM (inactive) | > 100 µM (inactive) | > 100 µM (inactive) | > 100 µM (inactive) | > 100 µM (inactive) | > 100 µM (inactive) | > 100 µM (inactive) | > 100 µM (inactive) |
| Cc1cc(N(CCC#N)CCC#N)ccc1/C(Sc1ccccc1)=C(\NC(=O)/C=C/c1ccccc1)C(=O)Sc1ccccc1 | 2.22 µM (inactive) | 2.02 µM (inactive) | 1.7 µM (inactive) | 2.92 µM (inactive) | 0.557 µM (active) | 2.56 µM (inactive) | 5.53 µM (inactive) | 2.94 µM (inactive) | 2.13 µM (inactive) | 2.28 µM (inactive) | – | 6.18 µM (inactive) | 3.14 µM (inactive) | 1.47 µM (inactive) | 7.01 µM (inactive) | 1.82 µM (inactive) | 9.84 µM (inactive) | 2.82 µM (inactive) | 5.55 µM (inactive) |
| CC1OC(n2cc(F)c(=O)[nH]c2=O)C=CC1O (stereo not given) | > 100 µM (inactive) | > 100 µM (inactive) | > 100 µM (inactive) | > 100 µM (inactive) | > 100 µM (inactive) | > 100 µM (inactive) | > 100 µM (inactive) | > 100 µM (inactive) | > 100 µM (inactive) | > 100 µM (inactive) | – | > 100 µM (inactive) | > 100 µM (inactive) | > 100 µM (inactive) | > 100 µM (inactive) | > 100 µM (inactive) | > 100 µM (inactive) | > 100 µM (inactive) | > 100 µM (inactive) |
| COc1ccc(-c2c3ccccc3c(-c3ccc(OC)cc3)c3ccccc23)cc1 | > 100 µM (inactive) | > 100 µM (inactive) | > 100 µM (inactive) | > 100 µM (inactive) | > 100 µM (inactive) | > 100 µM (inactive) | > 100 µM (inactive) | > 100 µM (inactive) | 29.5 µM (inactive) | > 100 µM (inactive) | – | > 100 µM (inactive) | > 100 µM (inactive) | > 100 µM (inactive) | > 100 µM (inactive) | > 100 µM (inactive) | > 100 µM (inactive) | > 100 µM (inactive) | > 100 µM (inactive) |
